Measured values from patent publication US11345712B2, “Protein-targeting compounds and pharmaceutical compositions thereof, and their therapeutic applications” (BioTheryX, Inc., priority 2019, dated 2022).

System: MOLM-13 cells
Experiment: MOLM-13 cell viability assay (CellTiter-Glo)
Assay type: cell-based
Details: Homo sapiens, MOLM-13, 72 h, 3 days, concentration of 1 μM, read-out: Antiproliferative Activity (inhibition, MOLM-13 cell viability)
Method: MOLM-13 cells were cultured in RPMI 1640 media supplemented with 10% fetal bovine serum, streptomycin, and penicillin. The cells were plated in white walled 96-well plates at 2,500 cells/well. The cells were incubated in DMSO (control) or an indicated compound for 3 days at 37° C. and 5% CO2. Following the incubation period, 100 μL of CELLTITER-GLO® (CTG) reagent was added to each well. Following a 10 minutes incubation with shaking, luminescence was measured using an ENVISION® Multimode plate reader.

Q: How did the cytotoxicity at 1 µM turn out when `Cc1ccc(CNC(=O)NCc2cc3c(s2)CN(C2CCC(=O)NC2=O)C3=O)cc1Cl` (stereo not shown) [II-21, 1-(3-chloro-4-methylbenzyl)-3-((5-(2,6-dioxopiperidin-3-yl)-4-oxo-5,6-dihydro-4H-thieno[2,3-c]pyrrol-2-yl)methyl)urea] was run?
A: The cytotoxicity at 1 µM was 50 to 80%.

Q: How did the cytotoxicity at 1 µM turn out when `COc1cccc(C(=O)C(=O)NCc2cccc3c2CN(C2CCC(=O)NC2=O)C3=O)c1` (stereo not shown) [Compound I-94, 2-(3-methoxyphenyl)-N-((2-(2,6-dioxopiperidin-3-yl)-1-oxoisoindolin-4-yl)methyl)-2-oxoacetamide] was run?
A: The cytotoxicity at 1 µM was less than 25%.

Q: With `Cc1ccc(C(=O)C(=O)NCc2scc3c2CN(C2CCC(=O)NC2=O)C3=O)cc1N(C)C` (stereo not shown) [Compound I-44, 2-(3-(dimethylamino)-4-methylphenyl)-N-((5-(2,6-dioxopiperidin-3-yl)-4-oxo-5,6-dihydro-4H-thieno[3,4-c]pyrrol-1-yl)methyl)-2-oxoacetamide] as the molecule, how does the cytotoxicity at 1 µM read?
A: The cytotoxicity at 1 µM was greater than 80%.

Q: Which cytotoxicity at 1 µM does the source give for `O=C1CCC(N2Cc3c(NC(=O)C(=O)c4ccc(C5(C(F)(F)F)CC5)cc4)cccc3C2=O)C(=O)N1` (stereo not shown) [Compound I-57, N-(2-(2,6-dioxopiperidin-3-yl)-1-oxoisoindolin-4-yl)-2-oxo-2-(4-(1-(trifluoromethyl)cyclopropyl)phenyl)acetamide] here?
A: The cytotoxicity at 1 µM was less than 25%.

Q: Which cytotoxicity at 1 µM does the source give for `O=C1CCC(N2Cc3c(CNC(=O)C(=O)c4ccc(F)c(F)c4)cccc3C2=O)C(=O)N1` (stereo not shown) [Compound I-73, 2-(3,4-difluorophenyl)-N-((2-(2,6-dioxopiperidin-3-yl)-1-oxoisoindolin-4-yl)methyl)-2-oxoacetamide] here?
A: The cytotoxicity at 1 µM was less than 25%.

Q: Which cytotoxicity at 1 µM does the source give for `O=C1CCC(N2Cc3c(CNC(=O)C(=O)c4ccc5ccccc5c4)cccc3C2=O)C(=O)N1` (stereo not shown) [Compound I-96, N-((2-(2,6-dioxopiperidin-3-yl)-1-oxoisoindolin-4-yl)methyl)-2-(naphthalen-2-yl)-2-oxoacetamide] here?
A: Its cytotoxicity at 1 µM is less than 25%.

Q: For `COc1c(F)cccc1CC(=O)NCc1cc2c(s1)C(=O)N(C1CCC(=O)NC1=O)C2` (stereo not shown) [II-116, N-((5-(2,6-dioxopiperidin-3-yl)-6-oxo-5,6-dihydro-4H-thieno[2,3-c]pyrrol-2-yl)methyl)-2-(3-fluoro-2-methoxyphenyl)acetamide], which cytotoxicity at 1 µM is on record?
A: Its cytotoxicity at 1 µM is less than 25%.

Q: With `CC(C)(C)c1ccc(C(=O)C(=O)NCc2cccc3c2C(=O)N(C2CCC(=O)NC2=O)C3)cc1` (stereo not shown) [Compound I-38, 2-(4-(tert-butyl)phenyl)-N-((2-(2,6-dioxopiperidin-3-yl)-3-oxoisoindolin-4-yl)methyl)-2-oxoacetamide] as the molecule, how does the cytotoxicity at 1 µM read?
A: The cytotoxicity at 1 µM was less than 25%.

Q: How did the cytotoxicity at 1 µM turn out when `Cc1cc(C(=O)C(=O)NCc2ccc3c(c2)CN(C2CCC(=O)NC2=O)C3=O)ccc1C(C)(C)C` (stereo not shown) [Compound I-55, 2-(3-methyl-4-(tert-butyl)phenyl)-N-((2-(2,6-dioxopiperidin-3-yl)-1-oxoisoindolin-5-yl)methyl)-2-oxoacetamide] was run?
A: Its cytotoxicity at 1 µM is greater than 80%.

Q: How did the cytotoxicity at 1 µM turn out when `Cc1cc(CCCC(=O)NCc2scc3c2CN(C2CCC(=O)NC2=O)C3=O)ccc1N(C)C` (stereo not shown) [II-115, 4-(4-(dimethylamino)-3-methylphenyl)-N-((5-(2,6-dioxopiperidin-3-yl)-4-oxo-5,6-dihydro-4H-thieno[3,4-c]pyrrol-1-yl)methyl)butanamide] was run?
A: Its cytotoxicity at 1 µM is less than 25%.

Q: For `O=C1CCC(N2Cc3c(csc3CNC(=O)C(=O)c3ccc(O)cc3)C2=O)C(=O)N1` (stereo not shown) [Compound I-16, 2-(4-hydroxyphenyl)-N-((5-(2,6-dioxopiperidin-3-yl)-4-oxo-5,6-dihydro-4H-thieno[3,4-c]pyrrol-1-yl)methyl)-2-oxoacetamide], which cytotoxicity at 1 µM is on record?
A: The cytotoxicity at 1 µM was less than 25%.

Q: With `Cc1ccc(CS(=O)(=O)NCc2scc3c2CN(C2CCC(=O)NC2=O)C3=O)cc1Cl` (stereo not shown) [II-69, 1-(3-chloro-4-methylphenyl)-N-((5-(2,6-dioxopiperidin-3-yl)-4-oxo-5,6-dihydro-4H-thieno[3,4-c]pyrrol-1-yl)methyl)methanesulfonamide] as the molecule, how does the cytotoxicity at 1 µM read?
A: Its cytotoxicity at 1 µM is 50 to 80%.

Q: `Cc1ccc(NC(=O)NCc2cc3c(s2)C(=O)N([C@@H]2CCC(=O)NC2=O)C3)cc1Cl` [II-91, (R)-1-(3-chloro-4-methylphenyl)-3-((5-(2,6-dioxopiperidin-3-yl)-6-oxo-5,6-dihydro-4H-thieno[2,3-c]pyrrol-2-yl)methyl)urea] was tested. Which cytotoxicity at 1 µM did it give?
A: The cytotoxicity at 1 µM was greater than 80%.

Q: How did the cytotoxicity at 1 µM turn out when `O=C1CCC(N2Cc3cc(CNC(=O)C(=O)c4ccc(F)c(F)c4)ccc3C2=O)C(=O)N1` (stereo not shown) [Compound I-93, 2-(3,4-difluorophenyl)-N-((2-(2,6-dioxopiperidin-3-yl)-1-oxoisoindolin-5-yl)methyl)-2-oxoacetamide] was run?
A: Its cytotoxicity at 1 µM is greater than 80%.

Q: How did the cytotoxicity at 1 µM turn out when `CN(C)c1ccc(C(=O)C(=O)NCc2scc3c2CN(C2CCC(=O)NC2=O)C3=O)cc1` (stereo not shown) [Compound I-7, 2-(4-dimethylaminophenyl)-N-((5-(2,6-dioxopiperidin-3-yl)-4-oxo-5,6-dihydro-4H-thieno[3,4-c]pyrrol-1-yl)methyl)-2-oxoacetamide] was run?
A: The cytotoxicity at 1 µM was less than 25%.

Q: How did the cytotoxicity at 1 µM turn out when `O=C1CCC(N2C(=O)c3cccc(CNC(=O)C(=O)c4ccc(C5(C(F)(F)F)CC5)cc4)c3C2=O)C(=O)N1` (stereo not shown) [Compound I-58, N-((2-(2,6-dioxopiperidin-3-yl)-1,3-dioxoisoindolin-4-yl)methyl)-2-oxo-2-(4-(1-(trifluoromethyl)cyclopropyl)phenyl)acetamide] was run?
A: The cytotoxicity at 1 µM was 50 to 80%.

Q: How did the cytotoxicity at 1 µM turn out when `N#Cc1ccc(C(=O)C(=O)NCc2ccc3c(c2)CN(C2CCC(=O)NC2=O)C3=O)cc1` (stereo not shown) [Compound I-90, 2-(4-cyanophenyl)-N-((2-(2,6-dioxopiperidin-3-yl)-1-oxoisoindolin-5-yl)methyl)-2-oxoacetamide] was run?
A: The cytotoxicity at 1 µM was less than 25%.

Q: How did the cytotoxicity at 1 µM turn out when `CC(C)c1ccc(C(=O)C(=O)NCc2ccc3c(c2)CN(C2CCC(=O)NC2=O)C3=O)s1` (stereo not shown) [Compound I-37, N-((2-(2,6-dioxopiperidin-3-yl)-1-oxoisoindolin-5-yl)methyl)-2-(5-isopropylthiophen-2-yl)-2-oxoacetamide] was run?
A: Its cytotoxicity at 1 µM is greater than 80%.

Q: With `O=C1CCC(N2Cc3cc(CNC(=O)C(=O)c4ccccc4)ccc3C2=O)C(=O)N1` (stereo not shown) [Compound I-83, N-((2-(2,6-dioxopiperidin-3-yl)-1-oxoisoindolin-5-yl)methyl)-2-oxo-2-phenylacetamide] as the molecule, how does the cytotoxicity at 1 µM read?
A: The cytotoxicity at 1 µM was greater than 80%.

Q: `O=C1CCC(N2Cc3c(csc3CNC(=O)NCCCOc3ccccc3)C2=O)C(=O)N1` (stereo not shown) [II-145, 1-((5-(2,6-dioxopiperidin-3-yl)-4-oxo-5,6-dihydro-4H-thieno[3,4-c]pyrrol-1-yl)methyl)-3-(3-phenoxypropyl)urea] was tested. Which cytotoxicity at 1 µM did it give?
A: The cytotoxicity at 1 µM was 50 to 80%.

Q: With `CC(C)c1cc(NC(=O)NCc2cc3c(s2)C(=O)N(C2CCC(=O)NC2=O)C3)cc(N(C)C)c1` (stereo not shown) [II-60, 1-(3-(dimethylamino)-5-isopropylphenyl)-3-((5-(2,6-dioxopiperidin-3-yl)-6-oxo-5,6-dihydro-4H-thieno[2,3-c]pyrrol-2-yl)methyl)urea] as the molecule, how does the cytotoxicity at 1 µM read?
A: Its cytotoxicity at 1 µM is greater than 80%.

Q: `CC(C)(C)c1ccc(C(=O)C(=O)NCc2scc3c2C(=O)N(C2CCC(=O)NC2=O)C3=O)cc1` (stereo not shown) [Compound I-13, 2-(4-(tert-butyl)phenyl)-N-((5-(2,6-dioxopiperidin-3-yl)-4,6-dioxo-5,6-dihydro-4H-thieno[3,4-c]pyrrol-1-yl)methyl)-2-oxoacetamide] was tested. Which cytotoxicity at 1 µM did it give?
A: Its cytotoxicity at 1 µM is less than 25%.

Q: How did the cytotoxicity at 1 µM turn out when `Cc1ccc(C=CC(=O)NCc2scc3c2CN(C2CCC(=O)NC2=O)C3=O)cc1Cl` (stereo not shown) [II-34, 3-(3-chloro-4-methylphenyl)-N-((5-(2,6-dioxopiperidin-3-yl)-4-oxo-5,6-dihydro-4H-thieno[3,4-c]pyrrol-1-yl)methyl)propenamide] was run?
A: Its cytotoxicity at 1 µM is greater than 80%.

Q: For `CCC(C)c1ccc(C(=O)C(=O)NCc2scc3c2CN(C2CCC(=O)NC2=O)C3=O)cc1` (stereo not shown) [Compound I-15, 2-(4-(sec-butyl)phenyl)-N-((5-(2,6-dioxopiperidin-3-yl)-4-oxo-5,6-dihydro-4H-thieno[3,4-c]pyrrol-1-yl)methyl)-2-oxoacetamide], which cytotoxicity at 1 µM is on record?
A: Its cytotoxicity at 1 µM is 25 to 50%.

Q: With `CCc1ccc(NC(=O)NCc2cc3c(s2)C(=O)N(C2CCC(=O)NC2=O)C3)cc1N(C)C` (stereo not shown) [II-96, 1-(3-(dimethylamino)-4-ethylphenyl)-3-((5-(2,6-dioxopiperidin-3-yl)-6-oxo-5,6-dihydro-4H-thieno[2,3-c]pyrrol-2-yl)methyl)urea] as the molecule, how does the cytotoxicity at 1 µM read?
A: The cytotoxicity at 1 µM was greater than 80%.

Q: `Cc1ccc(NCCCNCc2cc3c(s2)C(=O)N(C2CCC(=O)NC2=O)C3)cc1Cl` (stereo not shown) [II-65, 3-(2-(((3-((3-chloro-4-methylphenyl)amino)propyl)amino)methyl)-6-oxo-4,6-dihydro-5H-thieno[2,3-c]pyrrol-5-yl)piperidine-2,6-dione] was tested. Which cytotoxicity at 1 µM did it give?
A: The cytotoxicity at 1 µM was less than 25%.

Q: Which cytotoxicity at 1 µM does the source give for `CC(C)(C)C1CCC(C(=O)C(=O)NCc2cccc3c2CN(C2CCC(=O)NC2=O)C3=O)CC1` (stereo not shown) [Compound I-67, 2-(4-(tert-butyl)cyclohexyl)-N-((2-(2,6-dioxopiperidin-3-yl)-1-oxoisoindolin-4-yl)methyl)-2-oxoacetamide] here?
A: The cytotoxicity at 1 µM was 25 to 50%.

Q: `O=C1CCC(N2Cc3cc(CNC(=O)NCc4c(Cl)cccc4Cl)sc3C2=O)C(=O)N1` (stereo not shown) [II-36, 1-(2,6-dichlorobenzyl)-3-((5-(2,6-dioxopiperidin-3-yl)-6-oxo-5,6-dihydro-4H-thieno[2,3-c]pyrrol-2-yl)methyl)urea] was tested. Which cytotoxicity at 1 µM did it give?
A: Its cytotoxicity at 1 µM is 50 to 80%.

Q: How did the cytotoxicity at 1 µM turn out when `O=C1CCC(N2Cc3c(csc3CNC(=O)C(=O)c3ccc(C(F)(F)F)cc3)C2=O)C(=O)N1` (stereo not shown) [Compound I-23, 2-(4-trifluoromethylphenyl)-N-((5-(2,6-dioxopiperidin-3-yl)-4-oxo-5,6-dihydro-4H-thieno[3,4-c]pyrrol-1-yl)methyl)-2-oxoacetamide] was run?
A: The cytotoxicity at 1 µM was less than 25%.

Q: With `O=C(/C=C/c1ccc(C2(C(F)(F)F)CC2)cc1)NCc1ccc2c(c1)CN(C1CCC(=O)NC1=O)C2=O` (stereo not shown) [II-149, (E)-N-((2-(2,6-dioxopiperidin-3-yl)-1-oxoisoindolin-5-yl)methyl)-3-(4-(1-(trifluoromethyl)cyclopropyl)phenyl)acrylamide] as the molecule, how does the cytotoxicity at 1 µM read?
A: The cytotoxicity at 1 µM was greater than 80%.

Q: Which cytotoxicity at 1 µM does the source give for `CC(C)(C)c1ccc(S(=O)(=O)NCCc2scc3c2CN(C2CCC(=O)NC2=O)C3=O)cc1` (stereo not shown) [II-131, 4-(tert-butyl)-N-(2-(5-(2,6-dioxopiperidin-3-yl)-4-oxo-5,6-dihydro-4H-thieno[3,4-c]pyrrol-1-yl)ethyl)benzenesulfonamide] here?
A: Its cytotoxicity at 1 µM is less than 25%.
